Measured values as given in patent US10710978B2, “STK4 inhibitors for treatment of hematologic malignancies” (Dana-Farber Cancer Institute, Inc., priority 2015, dated 2020).
Like-named read-outs stand apart in the source and are kept apart here.

Key:
Test in all cases: KiNativ assay
Format in all cases: binding
FER = FER (Homo sapiens (Human), UniProt P16591); settings: H929 live cell
Experimental: (§1) Biochemical IC50s of the compounds of the present disclosure against various kinases were measured in a KiNativ assay. Compounds were screened in duplicate at 10 μM in H929 live cell. IC50 was measured via Mass spectroscopy (MS).

MAP2K6 = MAP2K6 (Homo sapiens (Human), UniProt P52564); settings: H929 live cell
Experimental: as §1

NuaK1 = NuaK1 (Homo sapiens (Human), UniProt O60285); settings: H929 live cell
Sequence of NuaK1 (O60285 whole entry): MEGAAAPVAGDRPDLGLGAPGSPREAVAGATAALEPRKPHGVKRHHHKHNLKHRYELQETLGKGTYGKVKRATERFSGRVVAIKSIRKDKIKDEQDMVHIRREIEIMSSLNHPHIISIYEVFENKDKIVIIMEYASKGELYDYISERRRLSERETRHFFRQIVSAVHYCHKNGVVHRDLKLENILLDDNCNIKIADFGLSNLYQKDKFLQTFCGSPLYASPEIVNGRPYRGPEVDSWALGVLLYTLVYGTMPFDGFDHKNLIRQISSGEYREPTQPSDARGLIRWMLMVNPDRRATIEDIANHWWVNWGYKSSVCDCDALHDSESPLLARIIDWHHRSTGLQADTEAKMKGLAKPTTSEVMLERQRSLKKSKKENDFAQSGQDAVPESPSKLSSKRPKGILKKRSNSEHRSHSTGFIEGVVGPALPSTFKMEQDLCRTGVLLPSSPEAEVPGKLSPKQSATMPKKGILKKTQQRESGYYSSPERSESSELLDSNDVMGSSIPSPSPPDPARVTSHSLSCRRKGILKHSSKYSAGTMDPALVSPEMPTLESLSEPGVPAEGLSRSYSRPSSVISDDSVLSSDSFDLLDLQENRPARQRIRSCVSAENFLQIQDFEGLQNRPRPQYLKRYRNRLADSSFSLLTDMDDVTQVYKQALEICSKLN
Experimental: as §1

ATR = ATR (Homo sapiens (Human), UniProt Q13535); settings: H929 live cell, read-out: inhibition (10 μM)
Experimental: as §1

AurB = AurB (Homo sapiens (Human), UniProt Q96GD4); settings: H929 live cell
Experimental: as §1

JAK1 domain1 = JAK1 domain1 (Homo sapiens (Human), UniProt P23458); settings: H929 live cell
Experimental: as §1

MARK4 = MARK4 (Homo sapiens (Human), UniProt Q96L34); settings: H929 live cell
Experimental: as §1

RSK2 domain1 = RSK2 domain1 (Homo sapiens (Human), UniProt P51812); settings: H929 live cell
Sequence of RSK2 domain1 (P51812 whole entry, the tested form may be a part): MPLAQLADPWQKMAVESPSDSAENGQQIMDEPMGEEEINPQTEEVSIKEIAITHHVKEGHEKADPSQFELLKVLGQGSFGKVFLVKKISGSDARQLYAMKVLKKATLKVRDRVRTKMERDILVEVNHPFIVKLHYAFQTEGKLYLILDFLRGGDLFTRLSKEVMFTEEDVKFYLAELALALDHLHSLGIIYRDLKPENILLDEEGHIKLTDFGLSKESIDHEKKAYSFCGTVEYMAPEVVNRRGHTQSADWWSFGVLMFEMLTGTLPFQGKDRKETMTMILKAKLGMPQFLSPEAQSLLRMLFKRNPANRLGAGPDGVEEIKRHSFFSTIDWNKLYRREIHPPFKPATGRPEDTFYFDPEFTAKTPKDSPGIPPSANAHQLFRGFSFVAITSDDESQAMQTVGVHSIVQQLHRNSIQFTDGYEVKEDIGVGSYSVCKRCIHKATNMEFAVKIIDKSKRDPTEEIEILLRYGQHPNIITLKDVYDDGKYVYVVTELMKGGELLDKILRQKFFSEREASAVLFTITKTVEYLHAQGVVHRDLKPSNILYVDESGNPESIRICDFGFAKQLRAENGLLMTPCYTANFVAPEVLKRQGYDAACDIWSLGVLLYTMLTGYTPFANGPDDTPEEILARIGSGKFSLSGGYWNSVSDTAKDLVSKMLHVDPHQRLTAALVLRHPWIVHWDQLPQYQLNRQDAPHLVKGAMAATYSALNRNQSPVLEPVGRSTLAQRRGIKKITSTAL
Experimental: as §1

HPK1 = HPK1 (Homo sapiens (Human), UniProt Q92918); settings: H929 live cell
Sequence of HPK1 (Q92918 whole entry): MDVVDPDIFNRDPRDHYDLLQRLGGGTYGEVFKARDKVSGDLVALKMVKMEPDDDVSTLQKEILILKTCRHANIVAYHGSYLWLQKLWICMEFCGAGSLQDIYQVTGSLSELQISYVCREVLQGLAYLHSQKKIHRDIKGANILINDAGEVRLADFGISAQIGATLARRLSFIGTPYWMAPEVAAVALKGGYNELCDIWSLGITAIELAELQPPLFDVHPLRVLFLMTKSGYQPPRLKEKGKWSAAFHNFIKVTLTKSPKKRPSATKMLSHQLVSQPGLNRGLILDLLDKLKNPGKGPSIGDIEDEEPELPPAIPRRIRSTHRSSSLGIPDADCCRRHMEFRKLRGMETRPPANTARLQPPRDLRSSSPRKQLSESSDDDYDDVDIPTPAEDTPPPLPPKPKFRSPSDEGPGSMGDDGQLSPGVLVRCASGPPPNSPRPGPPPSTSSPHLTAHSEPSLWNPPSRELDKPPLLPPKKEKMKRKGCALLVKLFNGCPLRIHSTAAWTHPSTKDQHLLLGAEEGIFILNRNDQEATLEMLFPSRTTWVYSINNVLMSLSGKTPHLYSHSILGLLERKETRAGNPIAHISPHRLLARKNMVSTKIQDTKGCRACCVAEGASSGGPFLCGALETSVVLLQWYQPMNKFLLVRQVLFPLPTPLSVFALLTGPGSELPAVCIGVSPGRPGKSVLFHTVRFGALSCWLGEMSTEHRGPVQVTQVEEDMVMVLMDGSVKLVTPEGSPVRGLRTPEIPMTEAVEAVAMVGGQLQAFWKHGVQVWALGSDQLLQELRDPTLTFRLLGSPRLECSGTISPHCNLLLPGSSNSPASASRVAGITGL
Experimental: as §1

STLK5 = STLK5 (Homo sapiens (Human), UniProt Q7RTN6); settings: H929 live cell
Experimental: as §1

PEK = PEK (Homo sapiens (Human), UniProt Q9NZJ5); settings: H929 live cell
Experimental: as §1

CHK2 = CHK2 (Homo sapiens (Human), UniProt O96017); settings: H929 live cell
Experimental: as §1

AurA, AurB, AurC = settings: H929 live cell
Experimental: as §1

[1] = system: CaMK2a, CaMK2b, CaMK2d, CaMK2g; settings: H929 live cell
Experimental: as §1

MAP3K1 = MAP3K1 (Homo sapiens (Human), UniProt Q13233); settings: H929 live cell
Experimental: as §1

p70S6K = p70S6K (Homo sapiens (Human), UniProt P23443); settings: H929 live cell
Experimental: as §1

CK1g3 = CK1g3 (Homo sapiens (Human), UniProt Q9Y6M4); settings: H929 live cell
Experimental: as §1

NEK3 = NEK3 (Homo sapiens (Human), UniProt P51956); settings: H929 live cell
Experimental: as §1

ZAK = ZAK (Homo sapiens (Human), UniProt Q9NYL2); settings: H929 live cell
Experimental: as §1

TBK1 = TBK1 (Homo sapiens (Human), UniProt Q9UHD2); settings: H929 live cell
Experimental: as §1

NEK9 = NEK9 (Homo sapiens (Human), UniProt Q8TD19); settings: H929 live cell
Experimental: as §1

NEK4 = NEK4 (Homo sapiens (Human), UniProt P51957); settings: H929 live cell
Experimental: as §1

BRAF = BRAF (Homo sapiens (Human), UniProt P15056); settings: H929 live cell
Experimental: as §1

NuaK2 = NuaK2 (Homo sapiens (Human), UniProt Q9H093); settings: H929 live cell
Experimental: as §1

MARK1, MARK2 = settings: H929 live cell
Experimental: as §1

MAP3K2, MAP3K3 = settings: H929 live cell
Experimental: as §1

MARK3 = MARK3 (Homo sapiens (Human), UniProt P27448); settings: H929 live cell
Experimental: as §1

SNRK = SNRK (Homo sapiens (Human), UniProt Q9NRH2); settings: H929 live cell
Experimental: as §1

PKCi = PKCi (Homo sapiens (Human), UniProt P41743); settings: H929 live cell
Sequence of PKCi (P41743 whole entry): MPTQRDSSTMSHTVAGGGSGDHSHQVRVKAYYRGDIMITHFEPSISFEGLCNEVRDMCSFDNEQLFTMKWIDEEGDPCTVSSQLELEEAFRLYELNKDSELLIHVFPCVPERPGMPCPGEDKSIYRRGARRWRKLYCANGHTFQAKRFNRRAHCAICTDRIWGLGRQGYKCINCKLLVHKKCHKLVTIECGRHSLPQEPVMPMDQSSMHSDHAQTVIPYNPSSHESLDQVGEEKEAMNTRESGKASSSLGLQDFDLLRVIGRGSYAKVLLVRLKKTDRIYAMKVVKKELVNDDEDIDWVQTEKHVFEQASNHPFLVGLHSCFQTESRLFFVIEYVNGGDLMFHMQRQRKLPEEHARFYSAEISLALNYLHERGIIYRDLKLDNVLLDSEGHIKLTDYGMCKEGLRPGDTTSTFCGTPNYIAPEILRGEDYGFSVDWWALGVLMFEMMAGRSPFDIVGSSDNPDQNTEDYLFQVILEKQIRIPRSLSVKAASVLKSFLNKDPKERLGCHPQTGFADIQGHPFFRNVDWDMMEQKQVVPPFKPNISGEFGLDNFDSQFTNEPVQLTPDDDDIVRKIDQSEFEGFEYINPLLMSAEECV
Experimental: as §1

MASTL = MASTL (Homo sapiens (Human), UniProt Q96GX5); settings: H929 live cell
Sequence of MASTL (Q96GX5 whole entry): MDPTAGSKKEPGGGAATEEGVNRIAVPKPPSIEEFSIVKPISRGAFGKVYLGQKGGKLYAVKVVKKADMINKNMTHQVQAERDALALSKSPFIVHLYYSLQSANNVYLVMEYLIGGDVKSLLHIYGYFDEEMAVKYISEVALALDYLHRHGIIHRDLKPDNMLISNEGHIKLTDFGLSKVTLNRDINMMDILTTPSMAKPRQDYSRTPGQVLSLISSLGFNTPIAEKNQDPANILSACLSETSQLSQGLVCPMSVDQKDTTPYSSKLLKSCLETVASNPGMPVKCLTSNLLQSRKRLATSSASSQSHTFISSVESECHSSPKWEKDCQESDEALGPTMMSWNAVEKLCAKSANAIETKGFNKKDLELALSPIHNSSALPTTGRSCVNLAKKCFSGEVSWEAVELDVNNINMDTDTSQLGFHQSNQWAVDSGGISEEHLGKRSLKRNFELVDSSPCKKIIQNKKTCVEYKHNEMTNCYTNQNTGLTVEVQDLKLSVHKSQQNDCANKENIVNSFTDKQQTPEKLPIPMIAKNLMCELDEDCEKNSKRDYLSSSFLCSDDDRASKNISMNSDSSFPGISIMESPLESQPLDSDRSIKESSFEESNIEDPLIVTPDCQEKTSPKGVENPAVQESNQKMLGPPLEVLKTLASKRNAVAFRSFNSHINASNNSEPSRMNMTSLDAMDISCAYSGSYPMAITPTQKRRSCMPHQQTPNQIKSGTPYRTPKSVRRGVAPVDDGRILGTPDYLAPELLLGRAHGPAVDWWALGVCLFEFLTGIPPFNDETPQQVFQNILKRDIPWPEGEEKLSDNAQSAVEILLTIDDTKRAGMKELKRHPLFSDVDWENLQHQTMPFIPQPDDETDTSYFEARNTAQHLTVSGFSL
Experimental: as §1

MAST3 = MAST3 (Homo sapiens (Human), UniProt O60307); settings: H929 live cell
Experimental: as §1

MAP3K4 = MAP3K4 (Homo sapiens (Human), UniProt Q9Y6R4); settings: H929 live cell
Experimental: as §1

PIP4K2A = PIP4K2A (Homo sapiens (Human), UniProt P48426); settings: H929 live cell
Sequence of PIP4K2A (P48426 whole entry): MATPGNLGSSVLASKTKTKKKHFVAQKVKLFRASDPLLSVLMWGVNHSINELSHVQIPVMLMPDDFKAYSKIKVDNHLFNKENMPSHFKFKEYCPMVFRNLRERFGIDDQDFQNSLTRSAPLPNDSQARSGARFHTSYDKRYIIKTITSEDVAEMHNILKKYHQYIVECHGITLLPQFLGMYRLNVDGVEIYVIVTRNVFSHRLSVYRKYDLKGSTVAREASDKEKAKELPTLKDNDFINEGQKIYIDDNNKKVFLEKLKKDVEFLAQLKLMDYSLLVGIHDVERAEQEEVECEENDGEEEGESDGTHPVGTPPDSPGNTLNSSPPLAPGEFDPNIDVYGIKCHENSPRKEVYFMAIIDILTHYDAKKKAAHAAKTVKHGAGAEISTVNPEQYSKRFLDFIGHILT
Experimental: as §1

Sequence of FER (P16591 whole entry): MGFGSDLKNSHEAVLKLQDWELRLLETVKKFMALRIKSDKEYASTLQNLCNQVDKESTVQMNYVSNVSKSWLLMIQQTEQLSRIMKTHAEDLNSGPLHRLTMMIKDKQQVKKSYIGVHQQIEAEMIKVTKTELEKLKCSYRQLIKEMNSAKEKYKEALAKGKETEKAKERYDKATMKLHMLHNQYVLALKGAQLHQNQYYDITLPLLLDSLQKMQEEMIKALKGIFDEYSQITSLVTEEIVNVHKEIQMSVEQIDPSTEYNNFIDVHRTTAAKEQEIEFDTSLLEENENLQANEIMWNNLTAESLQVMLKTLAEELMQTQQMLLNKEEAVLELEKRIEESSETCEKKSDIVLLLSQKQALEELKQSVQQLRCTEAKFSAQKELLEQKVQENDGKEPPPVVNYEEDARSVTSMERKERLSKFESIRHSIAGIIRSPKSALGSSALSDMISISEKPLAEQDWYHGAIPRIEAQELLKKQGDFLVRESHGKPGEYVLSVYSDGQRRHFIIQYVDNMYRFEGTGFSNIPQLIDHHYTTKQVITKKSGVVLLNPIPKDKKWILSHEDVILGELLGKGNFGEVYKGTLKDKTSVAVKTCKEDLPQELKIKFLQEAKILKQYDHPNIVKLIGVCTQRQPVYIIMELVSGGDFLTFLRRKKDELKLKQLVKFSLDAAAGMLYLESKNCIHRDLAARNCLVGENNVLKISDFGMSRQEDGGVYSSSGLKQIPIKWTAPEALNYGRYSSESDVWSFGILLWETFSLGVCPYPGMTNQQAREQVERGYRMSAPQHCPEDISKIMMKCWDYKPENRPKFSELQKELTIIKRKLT

Question: With Nc1ncc(-c2cccc([N+](=O)[O-])c2F)cc1-c1ccc2c(c1)CCNC2=O [Compound I-9, 6-(2-amino-5-(2-fluoro-3-nitrophenyl)pyridin-3-yl)-3,4-dihydroisoquinolin-1(2H)-one] as the molecule, how does the inhibition at 10 µM (FER; read-out: % inhibition (range)) read?
Answer: 0%

Question: And the inhibition at 10 µM (FER; read-out: inhibition (10 μM))?
Answer: 27.4%

Question: And the inhibition at 10 µM (MAP2K6; read-out: % inhibition (range))?
Answer: 0%

Question: And the inhibition at 10 µM (MAP2K6; read-out: inhibition (10 μM))?
Answer: 6.8%

Question: What about the “inhibition (10 μM)” value (NuaK1) of the same molecule?
Answer: >90%

Question: And the inhibition at 10 µM (NuaK1; read-out: % inhibition (range))?
Answer: > 90%

Question: And the inhibition at 10 µM (NuaK1; read-out: inhibition (10 μM))?
Answer: 91%

Question: What about the inhibition at 10 µM (ATR) of the same molecule?
Answer: 37.5%

Question: And the inhibition at 10 µM (AurB; read-out: % inhibition (range))?
Answer: 50 to 75%

Question: What about the inhibition at 10 µM (AurB; read-out: inhibition (10 μM)) of the same molecule?
Answer: 53.4%

Question: And the inhibition at 10 µM (JAK1 domain1; read-out: % inhibition (range))?
Answer: 0%

Question: What about the inhibition at 10 µM (JAK1 domain1; read-out: inhibition (10 μM)) of the same molecule?
Answer: -44.3%

Question: What about the inhibition at 10 µM (MARK4; read-out: % inhibition (range)) of the same molecule?
Answer: 75 to 90%

Question: And the inhibition at 10 µM (MARK4; read-out: inhibition (10 μM))?
Answer: > 75%

Question: And the inhibition at 10 µM (RSK2 domain1; read-out: % inhibition (range))?
Answer: 50 to 75%

Question: What about the inhibition at 10 µM (RSK2 domain1; read-out: inhibition (10 μM)) of the same molecule?
Answer: 69.9%

Question: What about the inhibition at 10 µM (HPK1; read-out: % inhibition (range)) of the same molecule?
Answer: > 90%

Question: And the inhibition at 10 µM (HPK1; read-out: inhibition (10 μM))?
Answer: 97.5%

Question: What about the inhibition at 10 µM (STLK5; read-out: % inhibition (range)) of the same molecule?
Answer: 0%

Question: What about the inhibition at 10 µM (STLK5; read-out: inhibition (10 μM)) of the same molecule?
Answer: -14.9%

Question: And the inhibition at 10 µM (PEK; read-out: % inhibition (range))?
Answer: > 100%

Question: And the inhibition at 10 µM (PEK; read-out: inhibition (10 μM))?
Answer: -100%

Question: What about the inhibition at 10 µM (CHK2; read-out: % inhibition (range)) of the same molecule?
Answer: 75 to 90%

Question: And the inhibition at 10 µM (CHK2; read-out: inhibition (10 μM))?
Answer: 80.9%

Question: What about the “% inhibition (range)” value (AurA, AurB, AurC; 10 μM) of the same molecule?
Answer: 50-75%

Question: And the “inhibition (10 μM)” value (AurA, AurB, AurC)?
Answer: 66.2%

Question: What about the “% inhibition (range)” value ([1]; 10 μM) of the same molecule?
Answer: 0.0%

Question: And the “inhibition (10 μM)” value [1]?
Answer: 3.3%

Question: And the inhibition at 10 µM (MAP3K1; read-out: % inhibition (range))?
Answer: > 90%

Question: And the inhibition at 10 µM (MAP3K1; read-out: inhibition (10 μM))?
Answer: 95.6%

Question: What about the inhibition at 10 µM (p70S6K; read-out: % inhibition (range)) of the same molecule?
Answer: 0%

Question: And the inhibition at 10 µM (p70S6K; read-out: inhibition (10 μM))?
Answer: -71.5%

Question: And the inhibition at 10 µM (CK1g3; read-out: % inhibition (range))?
Answer: > 90%

Question: And the inhibition at 10 µM (CK1g3; read-out: inhibition (10 μM))?
Answer: 93%

Question: And the inhibition at 10 µM (NEK3; read-out: % inhibition (range))?
Answer: 0%

Question: And the inhibition at 10 µM (NEK3; read-out: inhibition (10 μM))?
Answer: -42.8%

Question: And the inhibition at 10 µM (ZAK; read-out: % inhibition (range))?
Answer: 35 to 50%

Question: What about the inhibition at 10 µM (ZAK; read-out: inhibition (10 μM)) of the same molecule?
Answer: 42%

Question: What about the inhibition at 10 µM (TBK1; read-out: % inhibition (range)) of the same molecule?
Answer: 0%

Question: What about the inhibition at 10 µM (TBK1; read-out: inhibition (10 μM)) of the same molecule?
Answer: 23.7%

Question: What about the inhibition at 10 µM (NEK9; read-out: % inhibition (range)) of the same molecule?
Answer: 0%

Question: And the inhibition at 10 µM (NEK9; read-out: inhibition (10 μM))?
Answer: -38.3%

Question: What about the inhibition at 10 µM (NEK4; read-out: % inhibition (range)) of the same molecule?
Answer: 50 to 75%

Question: And the inhibition at 10 µM (NEK4; read-out: inhibition (10 μM))?
Answer: 67%

Question: What about the inhibition at 10 µM (BRAF; read-out: % inhibition (range)) of the same molecule?
Answer: 0%

Question: And the inhibition at 10 µM (BRAF; read-out: inhibition (10 μM))?
Answer: 3.3%

Question: And the inhibition at 10 µM (NuaK2; read-out: % inhibition (range))?
Answer: 50 to 75%

Question: And the inhibition at 10 µM (NuaK2; read-out: inhibition (10 μM))?
Answer: 58.7%

Question: What about the “% inhibition (range)” value (MARK1, MARK2; 10 μM) of the same molecule?
Answer: 35-50%

Question: What about the “inhibition (10 μM)” value (MARK1, MARK2) of the same molecule?
Answer: 40.7%

Question: And the “% inhibition (range)” value (MAP3K2, MAP3K3; 10 μM)?
Answer: 35-50%

Question: What about the “inhibition (10 μM)” value (MAP3K2, MAP3K3) of the same molecule?
Answer: 43.2%

Question: And the inhibition at 10 µM (MARK3; read-out: % inhibition (range))?
Answer: 75 to 90%

Question: What about the inhibition at 10 µM (MARK3; read-out: inhibition (10 μM)) of the same molecule?
Answer: 78.3%

Question: What about the inhibition at 10 µM (SNRK; read-out: % inhibition (range)) of the same molecule?
Answer: 35 to 50%

Question: And the inhibition at 10 µM (SNRK; read-out: inhibition (10 μM))?
Answer: 43.7%

Question: What about the inhibition at 10 µM (PKCi; read-out: % inhibition (range)) of the same molecule?
Answer: 0%

Question: And the inhibition at 10 µM (PKCi; read-out: inhibition (10 μM))?
Answer: 18.5%

Question: What about the inhibition at 10 µM (MASTL; read-out: % inhibition (range)) of the same molecule?
Answer: 0%

Question: And the inhibition at 10 µM (MASTL; read-out: inhibition (10 μM))?
Answer: -18.4%

Question: What about the inhibition at 10 µM (MAST3; read-out: % inhibition (range)) of the same molecule?
Answer: 0%

Question: What about the inhibition at 10 µM (MAST3; read-out: inhibition (10 μM)) of the same molecule?
Answer: 31.2%

Question: And the inhibition at 10 µM (MAP3K4; read-out: % inhibition (range))?
Answer: 0%

Question: What about the inhibition at 10 µM (MAP3K4; read-out: inhibition (10 μM)) of the same molecule?
Answer: -9.6%

Question: And the inhibition at 10 µM (PIP4K2A; read-out: % inhibition (range))?
Answer: 0%

Question: And the inhibition at 10 µM (PIP4K2A; read-out: inhibition (10 μM))?
Answer: 10.2%
